The target of assay [1] is T1, LSD-1 (Homo sapiens, UniProt O60341).
T1 construct: purchased Cayman Chemical-USA 700120
The note with it: Table SM1; cited from earlier work.

For assay [2], the target named is T1, LSD-1. In words: fluorometric LSD-1 enzymatic assay (Cayman kit). The format is biochemical. The note with it: for IC50: read-out: IC50 LSD-1 enzyme. Here is the method: Briefly, the assay is based on a multistep enzymatic reaction in which LSD-1 first produces H2O2 during the demethylation of lysine 4 on a peptide corresponding to the first 21 amino acids of the N-terminal tail of histone H3. In the presence of horseradish peroxidase (HRP), H2O2 reacts with ADHP (10-acetyl-3,7-dihydroxyphenoxazine) to produce the highly fluorescent compound resorufin. Resorufin fluorescence was analysed with an excitation wavelength 530–540 nm and an emission wavelength of 585–595 nm. […] The procedure proceeds through the following steps: (i) prepare 100% initial activity wells by adding 120 μl of assay buffer, 20 μl of LSD1, 20 μl of HRP, 10 μl of ADHP, and 10 μl of DMSO to three wells. […] (iv) Initiate the reactions by adding 20 μl of substrate peptide to all the wells being used, except the background wells. (v) Cover the plate with the plate cover and incubate for 30 minutes at 37 °C. (vi) Remove the plate cover and read the plate using an excitation wavelength of 530–540 nm and an emission wavelength of 585–595 nm. (vii) Determine the average fluorescence of each sample. (viii) Subtract the fluorescence of the background wells from the fluorescence of the 100% initial activity and the inhibitor wells. (ix) Determine the percent inhibition for each sample. To do this, subtract each inhibitor sample value from the 100% initial activity sample value.

Assay [3] deals with pancreatic carcinoma Panc-1 cells. In words: MTT cytotoxicity against Panc-1 cells. It is filed as cell-based. The conditions noted are these: for SI: selectivity index in comparison with SH-SY5Y cells, Panc-1: Panc-1 vs SH-SY5Y. As to the method: (§1) The anticancer effects of captured hits were evaluated against SH-SY5Y (Neuroblastoma, CRL-2266), Panc-1 (pancreatic carcinoma, CRL-1469) and U-87 MG (glioblastoma, HTB-14) cells. Details about growth conditions, cell harvesting and counting are available in ESI Sections SM12–SM14. ^† The cancer killing profiles of tested compounds were evaluated colorimetrically using the Cell Titer Non-Radioactive Cell Proliferation Assay Kit® (Promega, USA) based on the reduction of a yellow tetrazole, 3-(4,5-Dimethylthiazol-2-yl)-2, 5-diphenyl tetrazolium bromide (MTT), to a purple formazan, a process that takes place in the mitochondria of viable cells (details are in ESI Sections SM12–SM14 ^†).[98,99]
(§2) Panc-1 and U-87 MG cells were used to probe LSD-1 inhibition by candidate inhibitors.[119,120] However, testing against HDF is aimed at evaluating the selective cytotoxicities of hits.

The test system of assay [4] is glioblastoma U-87 MG cells. Nature of the assay: MTT cytotoxicity against U-87 MG cells. The format is cell-based. Here is the method: as §1, §2
Assay [5] has as its system normal human dermal fibroblasts (HDF). Nature of the assay: cytotoxicity against normal human dermal fibroblasts. The conditions noted are these: for SI: selectivity index in comparison with SH-SY5Y cells, HDF: HDF vs SH-SY5Y. The format is cell-based. An excerpt: However, testing against HDF is aimed at evaluating the selective cytotoxicities of hits.
In assay [6] the test system is neuroblastoma SH-SY5Y cells. Nature of the assay: MTT cell viability assay on SH-SY5Y cells. It is filed as cell-based. The note with it: for IC50: read-out: In vitro IC50; for Experimental % inhibition Without verapamil At 50 μM: 72 h. Here is the method:
as §1
As SH-SY5Y cells highly express ATP binding cassette subfamily B member 1 (ABCB1, MDR1, normalized expression, NX: 36.8%),[100] cell resistance were reversed using verapamil (10 μM), which was added with each hit, and incubated with cells for 72 hours for subsequent MTT viability assay.[101,102] Finally, MTT cell proliferation assay results were analysed using GraphPad Prism 8.0 (GraphPad Software, Inc). […] Measurements were repeated in triplicates.
• MTT Cell Proliferation Assay
Inhibitory effect of the hits on SH-SY5Y cells were evaluated by a colorimetric method of CellTiter Non-Radioactive Cell Proliferation Assay Kit® (Promega, USA), based on the reduction of a yellow tetrazole, 3-(4,5-Dimethylthiazol-2-yl)-2, 5-diphenyl tetrazolium bromide (MTT), to a purple formazan, a process that take place in the mitochondria of viable cells.
Briefly, the cells were seeded onto 96-well plates (Greiner, Germany) at a concentration of 2×10^4 cells/well and incubated for 24 hours through which cells are attached to the walls of the wells.
Subsequently, hits under concern were screened on 50 µM and 10 µM concentrations (100 μL/ well). Each concentration was added in triplicates, and every plate contained a control of cells in plain medium. The cells were then incubated at 37 °C for 72 hours. After incubation, the media were aspirated from the wells and replaced by fresh media (100 μL/ well), and 15 µl MTT dye solution. The plates were incubated at 37 °C for four hours, and then 50 μL of solublization/stop solution was added to each well. Optical density (OD) at 560 nm wavelength was recorded one hour later using a 96-well plate reader (GloMax, Promega).
• Reversal of SH-SY5Y resistance by verapamil
As SH-SY5Y cells are highly expressing ATP binding cassette subfamily B member 1 (ABCB1, MDR1) (Normalized expression, NX: 36.8%) 100, cell resistance were reversed using 10 µM concentration of verapamil added with each hit and incubated with cells for 72 hours for subsequent MTT viability assay 101,102.

Where [7] appears, read: in presence of verapamil (10 μM).

The structures appear in SMILES notation. Read-outs that look alike come from different tables or passages of the source.

In the case of `Cc1cc(N)n2nc(SCc3ccccc3)nc2n1` [Cpd 31], the IC50 at LSD-1 [1] is over 50 µM.

For the compound `Cc1cc(Nc2ccccc2)n2nc(SCc3nc4ccccc4[nH]3)nc2n1` [Cpd 32], the IC50 at LSD-1 [1] was over 50 µM.

As to `CCCn1c(S)nc2c1c(=O)[nH]c(=O)n2C` [Cpd 33], on LSD-1 [1], the IC50 was 6.45 µM.

`CCCn1c(SCc2cccc(C)c2)nc2c1c(=O)[nH]c(=O)n2C` [Cpd 34]: the IC50 at LSD-1 [1] was 8.89 µM.

In the case of `CCCn1c(SCc2ccc(Cl)cc2)nc2c1c(=O)[nH]c(=O)n2C` [Cpd 36], at LSD-1 [1], the IC50 was 25.7 µM.

Turning to `CCCn1c(SCc2ccc(F)cc2)nc2c1c(=O)[nH]c(=O)n2C` [Cpd 38], the half-inhibitory concentration (IC50) on LSD-1 [1] is 14.2 µM.

Consider `Nc1cccc(/C=C/c2ccc(O)c(-c3ccccn3)c2)c1` [Cpd 44], for which the IC50 on LSD-1 [1] was 0.301 µM.

As for `CC(C)(C)OC(=O)N1CCN(C(=S)SCc2cn(Cc3cc(=O)oc4ccc(Cl)cc34)nn2)CC1` [Cpd 102], at LSD-1 [1], the IC50 is 125 µM.

With `Cc1ccc2oc(=O)cc(Cn3cc(CSC(=S)N4CCN(C(=O)OC(C)(C)C)CC4)nn3)c2c1` [Cpd 107], at LSD-1 [1], the half-maximal inhibitory concentration (IC50) was 125 µM.

With `Cc1cc(O)cc2oc(=O)cc(Cn3cc(CSC(=S)N4CCN(C(=O)OC(C)(C)C)CC4)nn3)c12` [Cpd 108], on LSD-1 [1], the half-maximal inhibitory concentration (IC50) is 125 µM.

On to `CC(C)(C)OC(=O)N1CCN(C(=S)SCc2cn(Cc3cc4ccccc4oc3=O)nn2)CC1` [Cpd 113], for which, at LSD-1 [1], the IC50 is 125 µM.

For `CC(C)(C)OC(=O)N1CCN(C(=S)SCc2cn(Cc3cc4ccc(O)cc4oc3=O)nn2)CC1` [Cpd 114], the IC50 at LSD-1 [1] was 103 µM.

`O=C(NCCCCCCCCCCNC(=O)Nc1cccc(C2=NCCN2)c1)Nc1cccc(C2=NCCN2)c1` [Cpd 285]: the “% Inhibition at 10 μM LSD-1 enzyme” value at LSD-1 [2] amounted to 18%. Also, the “% Inhibition at 10 μM Panc-1” value in assay [3] was found to be 3%. For the same compound, the “% Inhibition at 10 μM U-87 MG” value in assay [4] was 0%. For the same compound, in assay [5], the “% Inhibition at 10 μM HDF” value is listed as 31%.

As for `CCCCOCCCNCC(=O)Nc1ccc(S(=O)(=O)c2ccc(NC(=O)CNCCCOCCCC)cc2)cc1` [Cpd 287], the “% Inhibition at 10 μM LSD-1 enzyme” value at LSD-1 [2] was determined as 96%. Besides, the “% Inhibition at 10 μM Panc-1” value in assay [3] is 39%. The “% Inhibition at 10 μM U-87 MG” value in assay [4] is reported as 15%. Besides, the “% Inhibition at 10 μM HDF” value in assay [5] was found to be 7%.

In the case of `N=C(N)c1ccc(OCCCCCCOc2ccc(C(=N)N)cc2)cc1` [Cpd 288], the “% Inhibition at 10 μM LSD-1 enzyme” value at LSD-1 [2] amounted to 18%. Also, the “% Inhibition at 10 μM Panc-1” value in assay [3] is given as 41%. Also, the “% Inhibition at 10 μM U-87 MG” value in assay [4] is given as 47%. In addition, the “% Inhibition at 10 μM HDF” value in assay [5] is on record as 35%.

Consider `COc1cccc2c1C(=O)c1c(O)c3c(c(O)c1C2=O)CC(O)(C(C)=NNC(=O)CO)CC3OC1CC(N)C(O)C(C)O1` (stereo not drawn) [Cpd 298], for which, at LSD-1 [2], the “HS (hill Slope) LSD-1 enzyme” value came out at 0.36, the “% Inhibition at 10 μM LSD-1 enzyme” value was 78% and the IC50 amounted to 210 nM. Further, in assay [3], the half-inhibitory concentration (IC50) turned out to be 740 nM; the “% Inhibition at 10 μM Panc-1” value turned out to be 93%; the “SI: selectivity index in comparison with SH-SY5Y cells, Panc-1” value came to 24.6. For the same compound, in assay [4], the IC50 was found to be 920 nM and the “% Inhibition at 10 μM U-87 MG” value is listed as 81%. Further, the “SI: selectivity index in comparison with SH-SY5Y cells, U-87 MG” value in assay [4] (U-87 MG vs SH-SY5Y) came out at 30.6. Further, in assay [5], the IC50 came to 3.06 µM; the “% Inhibition at 10 μM HDF” value is listed as 69%; the “SI: selectivity index in comparison with SH-SY5Y cells, HDF” value is on record as 102.

For the compound `N=C(N)c1ccc(OCCCCCCOc2ccc(C(=N)N)cc2I)cc1` [Cpd 304], at LSD-1 [2], the “HS (hill Slope) LSD-1 enzyme” value is recorded as 0.70, the “% Inhibition at 10 μM LSD-1 enzyme” value is 88% and the IC50 worked out at 610 nM. For the same compound, in assay [3], half-maximal inhibition (IC50) required 3850 nM; the “% Inhibition at 10 μM Panc-1” value came to 73%; the “SI: selectivity index in comparison with SH-SY5Y cells, Panc-1” value is 2.6. Further, in assay [4], the IC50 stood at 7270 nM and the “% Inhibition at 10 μM U-87 MG” value is 64%. Further, in assay [5], half-maximal inhibition (IC50) required 5.73 µM; the “% Inhibition at 10 μM HDF” value worked out at 68%; the “SI: selectivity index in comparison with SH-SY5Y cells, HDF” value is given as 15.48.

`COc1cccc2c1C(=O)c1c(O)c3c(c(O)c1C2=O)C[C@@](O)(C(=O)CO)C[C@@H]3O[C@H]1C[C@H](N)[C@H](O)[C@H](C)O1` [Doxorubicin, reference compound]: the inhibition at 10 µM worked out at 91% in assay [6] (Homo sapiens, read-out: Experimental % inhibition At 10 μM (column 6, head as shown: With verapamil), 72 h, 10 μM); 76% in assay [3] (Homo sapiens, PANC-1); 86% in assay [4] (Homo sapiens, U-87 MG). The IC50 in assay [6] (Homo sapiens, without verapamil) stood at 600 nM; in assay [3] (Homo sapiens, PANC-1), 1380 nM; in assay [4] (Homo sapiens, U-87 MG), 1370 nM.

On to `CCCCOCCCNCC(=O)Nc1ccc(S(=O)(=O)c2ccc(NC(=O)CNCCCOCCCC)cc2)cc1` [Hit 287], for which the “Experimental % inhibition Without verapamil At 50 μM” value in assay [6] (without verapamil) is given as 87.63%. Moreover, the IC50 in assay [6] (setting [7]) worked out at 5460 ± 640 nM. Also, at LSD-1 [2], the “HS (hill Slope) LSD-1 enzyme” value is listed as 0.75 and the half-maximal inhibitory concentration (IC50) was determined as 210 nM.

For `COc1cccc2c1C(=O)c1c(O)c3c(c(O)c1C2=O)CC(O)(C(C)=NNC(=O)CO)CC3OC1CC(N)C(O)C(C)O1` (stereo not drawn) [Hit 298], in assay [6] (without verapamil), the “Experimental % inhibition Without verapamil At 50 μM” value came to 86.99%. Also, the IC50 in assay [6] (without verapamil) stood at 30 nM; at LSD-1 [2] it was 210 ± 560 nM; in assay [3] it was 740 ± 90 nM; in assay [4], 930 ± 120 nM. For the same compound, the “HS (hill Slope) LSD-1 enzyme” value at LSD-1 [2] is listed as 0.36.

Regarding `N=C(N)c1ccc(OCCCCCCOc2ccc(C(=N)N)cc2I)cc1` [Hit 304], in assay [6] (without verapamil), the “Experimental % inhibition Without verapamil At 50 μM” value is 88.87%. The IC50 in assay [6] (setting [7]) stood at 370 ± 20 nM; at LSD-1 [2], 610 ± 120 nM; in assay [3], 3850 ± 270 nM; in assay [4] it was 7270 ± 670 nM. The “HS (hill Slope) LSD-1 enzyme” value at LSD-1 [2] is 0.68.
